“Also recorded” adds a separate entry of the source. Like-named read-outs stand apart in the source and are kept apart here. Blank lines part the entries; values can stand above or below the compound they belong to.
Key:
[1] = molecular target: T1, mushroom tyrosinase (EC 1.14.18.1) (Agaricus bisporus, UniProt C7FF04); assay: Mushroom tyrosinase inhibition assay (L-DOPA, dopachrome absorbance); format: biochemical, Agaricusbisporus
T1 construct: purchased Sigma Chemical Co., ST; Louis, MO
Protocol: The mushroom tyrosinase (EC 1.14.18.1) (Sigma Chemical Co., ST. Louis, MO) was used for in vitro bioassays as described previously with some modifications[39]^,[40]. Briefly, 140 µL of phosphate buffer (20 mM, pH 6.8), 20 µL of mushroom tyrosinase (30 U/mL) and 20 µL of the inhibitor solution were placed in the wells of a 96-well micro plate. After pre-incubation for 10 min at room temperature, 20 µL of L-DOPA (3,4-dihydroxyphenylalanine) (0.85 mM) was added and the plate was further incubated at 25 °C for 20 min. Subsequently the absorbance of dopachrome was measured at 492 nm using a micro plate reader (OPTI Max, Tunable). Kojic acid was used as a reference inhibitor and for negative tyrosinase inhibitor phosphate buffer was used instead of the inhibitor solution. The extent of inhibition by the test compounds was expressed as the percentage of concentration necessary to achieve 50% inhibition (IC50). Each concentration was analysed in three independent experiments run in triplicate. The IC50 values were determined by the data analysis and graphing software Origin 8.6, 64-bit.

[2] = system: murine melanoma (B16F10) cells; assay: Melanin content measurement; format: cell-based
Protocol: For melanin measurement, melanoma (1.5 × 10^5) cells were seeded in cell culture plates for 24 h at 37 °C and 5% CO2incubator. Then cells were incubated with various concentrations of 5c in cell culture medium for further 24 h. Later, assay for melanin measurement was performed following already reported method. Briefly, the cells were trypsinised and centrifuged for 5 min at 1000 rpm. The cell pellet was dissolved in 1 N NaOH at 60 °C for 1 h and melanin content was measured spectrophotometrically at 405 nm wavelengths using a microplate reader (BioTek, synergy HT, Winooski, VT).

mushroom tyrosinase = molecular target: T2, mushroom tyrosinase (Agaricus bisporus, UniProt C7FF04); assay: Kinetic analysis of the inhibition of mushroom tyrosinase (Lineweaver–Burk, Dixon, enzyme concentration plots); format: biochemical, Agaricusbisporus; conditions: for type of inhibition (Lineweaver–Burk plot) / Ki: diphenolase activity, L-DOPA; for Ki: read-out: dissociation constant Ki (Dixon plot); for mode of binding (reversibility of enzyme–inhibitor complex): remaining enzyme activity versus enzyme concentration 1.25, 2.5 and 5 µg/mL
T2 construct: purchased Sigma Chemical Co., ST; Louis, MO
T2 sequence (C7FF04 2-392): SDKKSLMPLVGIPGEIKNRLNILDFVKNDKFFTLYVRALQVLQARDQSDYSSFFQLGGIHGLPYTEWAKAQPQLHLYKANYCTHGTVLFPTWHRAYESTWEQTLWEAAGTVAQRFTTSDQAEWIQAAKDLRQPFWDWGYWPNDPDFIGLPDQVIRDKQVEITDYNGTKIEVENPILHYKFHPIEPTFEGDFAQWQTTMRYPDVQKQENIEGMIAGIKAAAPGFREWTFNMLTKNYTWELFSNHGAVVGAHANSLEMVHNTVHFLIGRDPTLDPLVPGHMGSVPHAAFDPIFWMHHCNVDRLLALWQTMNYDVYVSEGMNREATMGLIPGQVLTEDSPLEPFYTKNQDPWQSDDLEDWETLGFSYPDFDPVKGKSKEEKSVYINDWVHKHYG
Protocol: To understand the mechanism of mushroom tyrosinase inhibition by compounds 5c and 5d, kinetic studies were conducted. […] Enzyme inhibition kinetics was analysed by Lineweaver–Burk plot and Dixon plots to determine the type of inhibition and inhibition constant (KI).
The inhibitory mechanism of mushroom tyrosinase by compounds 5c (in concentrations: 0.0, 0.0011, 0.0022, 0.0045, 0.0090 and 0.018 µM) and 5d (in concentrations: 0.0, 1.75, 3.5, 7.0, 14, 28 and 56 µM) were investigated.
A series of experiments were performed to determine the inhibition kinetics by following method[41]^,[42]. Inhibitor 5c with concentrations […], 0.0022, 0.0045, 0.009, 0.018 µM and 5d with concentrations 0.0, 1.75, 3.5, 7, 14 and 28 µM, respectively, were used. Substrate L-DOPA concentration was among 0.0625–2 mM in all kinetic study. Pre-incubation and measurement time was the same as discussed in mushroom tyrosinase inhibition assay protocol. The formation of DOPAchrome was continuously monitored at 475 nm for 5 min at a 30 s interval in the microplate reader after addition of enzyme. The inhibition type on the enzyme was assayed by Lineweaver–Burk plots of inverse of velocities (1/V) versus inverse of substrate concentration 1/[S] mM^−1, and the inhibition constant Ki was determined by the Dixon plot of 1/V versus inhibitor concentrations.

[3] = MTT cell viability assay and cell morphology; format: cell-based, murine; conditions: mouse, B16F10 murine melanoma cells, B16F10, 24 µg/ml, read-out: toxic effect in MTT cell viability assay, compared to control normalized to 100%
Protocol: (§1) To test the safety level of 5c compound, MTT assay (3-(4,5-dimethylthiazol-2-yl)-2,5-diphenyltetrazolium Bromide) was performed. The murine melanoma (B16F10) cells (1.5 × 10^5 cells/ml) were seeded in 24 well plates (SPL Korea) with DMEM medium at 37 °C and 5% CO2 incubator. Test compound 5c was dissolved in DMSO and diluted with culture medium to get the final concentrations of 0 (control), 6, 12 and 24 µg/ml, and then added to the cells for 24 h further incubation. The MTT assay was then conducted, and results were calculated in percentage of control. In addition, cellular images were taken by inverted fluorescent microscope (Nikon, ECLIPSE, Tokyo, Japan) to access the 5c effect on cell morphology.

[4] = system: murine melanoma (B16F10) cells; assay: MTT cell viability assay and cell morphology; format: cell-based; conditions: 24 h
Protocol: as §1

[5] = L-DOPA substrate, pH 6.8, 25 °C, read-out: Mushroom tyrosinase inhibition IC50

T1 sequence (C7FF04 2-392): as above

SMILES: CC(=O)c1ccc(NC(=O)CCl)cc1 [Compound 1]
IC50 [1]: 54.5 ± 3.1 µM

SMILES: CC(=O)c1ccc(NC(=O)COC(=O)c2cccc(O)c2)cc1 [Compound 3a, 2-[(4-Acetylphenyl)amino]-2-oxoethyl 3-hydroxybenzoate]
IC50 [1]: 325 ± 16.9 µM

SMILES: CC(=O)c1ccc(NC(=O)COC(=O)c2ccc(O)cc2)cc1 [Compound 3b, 2-[(4-Acetylphenyl)amino]-2-oxoethyl 4-hydroxybenzoate]
IC50 [1]: 319 ± 31.9 µM

SMILES: CC(=O)c1ccc(NC(=O)COC(=O)c2ccc(O)cc2O)cc1 [Compound 3c, 2-[(4-Acetylphenyl)amino]-2-oxoethyl 2,4-dihydroxybenzoate]
IC50 [1]: 145 ± 16.7 µM

SMILES: CC(=O)c1ccc(NC(=O)COC(=O)c2ccc(O)c(O)c2)cc1 [Compound 3d, 2-[(4-Acetylphenyl)amino]-2-oxoethyl 3,4-dihydroxybenzoate]
IC50 [1]: 257 ± 23.4 µM

SMILES: CC(=O)c1ccc(NC(=O)COC(=O)c2cc(O)cc(O)c2)cc1 [Compound 3e]
melting point: 249 to 251 °C
IC50 [1]: 166 ± 14.2 µM

SMILES: CC(=O)c1ccc(NC(=O)COC(=O)C=Cc2ccccc2)cc1 [Compound 5a, 2-[(4-Acetylphenyl)amino]-2-oxoethyl cinnamate]
IC50 [1]: 63.5 ± 2.5 µM

SMILES: CC(=O)c1ccc(NC(=O)COC(=O)/C=C/c2ccc(O)cc2)cc1 [Compound 5b, 2-[(4-Acetylphenyl)amino]-2-oxoethyl (E)-3-(4-hydroxyphenyl)acrylate]
melting point: 226 to 228 °C
IC50 [1]: 97.3 ± 5.8 µM

type of inhibition (Lineweaver–Burk plot) (mushroom tyrosinase): competitive inhibitor
Ki (mushroom tyrosinase): 0.01 µM
melting point: 236 to 238 °C
IC50 [1, 5]: 0.0089 ± 0.0004 µM
SMILES: CC(=O)c1ccc(NC(=O)COC(=O)/C=C/c2ccc(O)cc2O)cc1 [Compound 5c, 2-[(4-Acetylphenyl)amino]-2-oxoethyl (E)-3-(2,4-dihydroxyphenyl)acrylate]
antimelanogenic activity ([2]; B16F10, 12 µg/mL): produced antimelenogenic effects
cellular melanin content as compared to control normalized to 100% ([2]; B16F10, 12 µg/ml, 24 h): 82%
mode of binding (reversibility of enzyme–inhibitor complex) (mushroom tyrosinase): irreversibly bind; also recorded: irreversible mode of binding
viability at 24 h, 24 µg/ml [3]: 33.7%
effect on cell viability (MTT) ([4]; B16F10, 12 µg/ml): safe and no significant effect and nontoxic
effect on cell morphology ([4]; B16F10, 3, 6, 12 µg/ml): no effect on cell morphology

type of inhibition (Lineweaver–Burk plot) (mushroom tyrosinase): mixed-type inhibitor
Ki (mushroom tyrosinase): 6 µM
IC50 [1, 5]: 8.26 ± 1.7 µM
SMILES: CC(=O)c1ccc(NC(=O)COC(=O)/C=C/c2ccc(Cl)cc2)cc1 [Compound 5d, 2-[(4-Acetylphenyl)amino]-2-oxoethyl-(E)-3-(4-chlorophenyl)acrylate]
mode of binding (reversibility of enzyme–inhibitor complex) (mushroom tyrosinase): irreversibly bind; also recorded: irreversible inhibitor; also recorded: irreversible mode of binding

From article PMC8853709, “Synthesis, computational studies, tyrosinase inhibitory kinetics and antimelanogenic activity of hydroxy substituted 2-[(4-acetylphenyl)amino]-2-oxoethyl derivatives” (Journal of Enzyme Inhibition and Medicinal Chemistry, 2019)
